Drawing on ChEMBL document CHEMBL1156460, “Lumazine synthase from Candida albicans as an anti-fungal target enzyme: structural and biochemical basis for drug design” (J Biol Chem, 2007), this text covers Ka for 4 molecules.

The test system of the assay is Candida albicans. Kind of assay: Binding affinity to Candida albicans lumazine synthase.

In the case of `O=c1[nH]c(=O)c2c([nH]1)n(C[C@H](O)[C@H](O)[C@H](O)CO)c(=O)n2CCCOP(=O)(O)O`, the Ka came to 3.53e+06 M⁻¹.

As to `O=c1[nH]c(Cl)c(CCCCOP(=O)(O)O)c(=O)[nH]1`, the Ka amounted to 6.61e+06 M⁻¹.

In the case of `O=c1[nH]c(=O)c2[nH]c(=O)n(C[C@H](O)[C@H](O)[C@H](O)CO)c2[nH]1`, the Ka was 758000 M⁻¹.

With `O=c1[nH]c(=O)c2c([nH]1)n(C[C@H](O)[C@H](O)[C@H](O)CO)c(=O)c(=O)n2CCCCOP(=O)(O)O`, the Ka was 1.63e+06 M⁻¹.
